From US20250074901A1, “NOVEL HETEROARYL COMPOUNDS” (ICAGEN, LLC, priority 2021, published 2025)

Molecular target: T1, Kv7.2 (Homo sapiens, UniProt O43526)
T1 construct: expressed in transfected cells
Test: Activation of Kv7.2 (in vitro assay, concentration response curve)
Format: cell-based
Settings: for Emax: Kv7.2 activation max %; for EC50: activation of Kv7.2
Outline: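 Agonist activity was measured in vitro across a range of compound concentrations and plotted as a sigmoidal concentration–response curve. EC50 is the concentration giving 50% of that compound's own maximal response (Emax).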

Emax [%]	EC50 [nM]	Compound
50	280	O=C(NCc1ccnc(OC(F)F)c1)N[C@H]1C[C@H](C(F)F)C1 [Example 136, 1-[[2-(difluoromethoxy)pyridin-4-yl]methyl]-3-[(1r,3r)-3-(difluoromethyl)cyclobutyl]urea]
48	2410	O=C(NCc1ccnc(OC(F)F)c1)N[C@H]1C[C@@H](C(F)F)C1 [Example 137, 1-[[2-(difluoromethoxy)pyridin-4-yl]methyl]-3-[(1s,3s)-3-(difluoromethyl)cyclobutyl]urea]
42	100	O=C(NCc1ccnc(OC(F)F)c1)N[C@H]1CCCC(F)(F)C1 [Example 140, 1-[(1S)-3,3-difluorocyclohexyl]-3-[[2-(difluoromethoxy)pyridin-4-yl]methyl]urea]
40	1030	CC1(NC(=O)NCc2ccnc(OC(F)F)c2)CCC(F)(F)C1 (centres unmarked) [Example 142, 1-[[2-(difluoromethoxy)pyridin-4-yl]methyl]-3-(3,3-difluoro-1-methylcyclopentyl)urea]
40	1050	CC1(NC(=O)NCc2ccnc(OC(F)F)c2)CCC(F)(F)CC1 [Example 143, 1-[[2-(difluoromethoxy)pyridin-4-yl]methyl]-3-(4,4-difluoro-1-methylcyclohexyl)urea]
43	240	O=C(NCc1ccnc(OC(F)F)c1)N[C@@H]1CCCC(F)(F)C1 [Example 149, 1-[(1R)-3,3-difluorocyclohexyl]-3-[[2-(difluoromethoxy)pyridin-4-yl]methyl]urea]
64	140	O=C(NCc1ccnc(OC(F)F)c1)NC(C1CCC1)C(F)(F)F (centres unmarked) [Example 152, 1-(1-cyclobutyl-2,2,2-trifluoroethyl)-3-[[2-(difluoromethoxy)pyridin-4-yl]methyl]urea]
41	7270	O=C(NCc1ccnc(C(F)(F)F)c1)NC12CC(F)(C1)C2 [Example 153, 1-(3-fluoro-1-bicyclo[1.1.1]pentanyl)-3-[[2-(trifluoromethyl)pyridin-4-yl]methyl]urea]
61	6310	CC(F)COc1cc(CNC(=O)NC23CC(F)(C2)C3)ccn1 (centres unmarked) [Example 160, 1-(3-fluoro-1-bicyclo[1.1.1]pentanyl)-3-[[2-(2-fluoropropoxy)pyridin-4-yl]methyl]urea]
83	240	C[C@H]1C[C@H](NC(=O)NCc2ccnc(OC(F)F)c2)C1 [Example 163, 1-[[2-(difluoromethoxy)pyridin-4-yl]methyl]-3-((1r,3r)-3-methylcyclobutyl)urea]
59	210	O=C(NCc1ccnc(OCC(F)(F)F)c1)NC12CC(F)(C1)C2 [Example 168, 1-(3-fluoro-1-bicyclo[1.1.1]pentanyl)-3-[[2-(2,2,2-trifluoroethoxy)pyridin-4-yl]methyl]urea]
48	360	O=C(NCc1ccnc(OC(F)F)c1)NC1(C2CC(F)(F)C2)CC1 [Example 171, 1-[1-(3,3-difluorocyclobutyl)cyclopropyl]-3-[[2-(difluoromethoxy)pyridin-4-yl]methyl]urea]
57	4400	O=C(NCc1ccnc(OC(F)F)c1)NC1CC1(F)F (centres unmarked) [Example 173, 1-(2,2-difluorocyclopropyl)-3-[[2-(difluoromethoxy)pyridin-4-yl]methyl]urea]
51	200	O=C(NCc1ccnc(OC(F)F)c1)N[C@H]1[C@@H]2CCC(F)(F)[C@@H]21 [Example 174, 1-[(1S,5R,6S)-2,2-difluoro-6-bicyclo[3.1.0]hexanyl]-3-[[2-(difluoromethoxy)pyridin-4-yl]methyl]urea]
50	8300	O=C(NCc1ccnc(OC(F)F)c1)NC1(C(F)(F)F)CC1 [Example 175, 1-[[2-(difluoromethoxy)pyridin-4-yl]methyl]-3-[I-(trifluoromethyl)cyclopropyl]urea]
43	1400	O=C(NCc1ccnc(OC(F)F)c1)NC1(C23CC(F)(C2)C3)CC1 [Example 177, 1-[[2-(difluoromethoxy)pyridin-4-yl]methyl]-3-[1-(3-fluoro-1-bicyclo[1.1.1]pentanyl)cyclopropyl]urea]
62	1860	O=C(NCc1ccnc(OC(F)F)c1)NC12CC(C(F)(F)F)(C1)C2 [Example 178, 1-[[2-(difluoromethoxy)pyridin-4-yl]methyl]-3-[3-(trifluoromethyl)-1-bicyclo[1.1.1]pentanyl]urea]
41	660	O=C(NCc1ccnc(OC(F)F)c1)NCC1CC(F)(F)C1 [Example 181, 1-[(3,3-difluorocyclobutyl)methyl]-3-[[2-(difluoromethoxy)pyridin-4-yl]methyl]urea]
63	90	CC12CC(NC(=O)NCc3ccnc(OC(F)F)c3)(C1)C2 [Example 182, 1-[[2-(difluoromethoxy)pyridin-4-yl]methyl]-3-(3-methyl-1-bicyclo[1.1.1]pentanyl)urea]

Second part, the molecule before the results:

Compound	Emax [%]	EC50 [nM]
O=C(NCc1ccnc(OC(F)F)c1)N[C@H]1CC[C@@H](C(F)(F)F)C1 [Example 144, 1-[[2-(difluoromethoxy)pyridin-4-yl]methyl]-3-[(1S,3R)-3-(trifluoromethyl)cyclopentyl]urea]	48	220
O=C(Nc1cccc(Cl)c1)N[C@@H](CO)c1ccnc(OCC(F)(F)F)c1 [Example 145, 1-(3-chlorophenyl)-3-[(1R)-2-hydroxy-1-[2-(2,2,2-trifluoroethoxy)pyridin-4-yl]ethyl]urea]	58	80
O=C(NCc1ccnc(OC(F)F)c1)N[C@@H]1CC[C@H](C(F)(F)F)C1 [Example 146, 1-[[2-(difluoromethoxy)pyridin-4-yl]methyl]-3-[(1R,3S)-3-(trifluoromethyl)cyclopentyl]urea]	68	160
O=C(NCc1ccnc(OC(F)F)c1)NC1CCCCC1(O)C(F)(F)F (centres unmarked) [Example 147, 1-[[2-(difluoromethoxy)pyridin-4-yl]methyl]-3-[2-hydroxy-2-(trifluoromethyl)cyclohexyl]urea]	56	540
O=C(Nc1cccc(Cl)c1F)NC(CO)c1ccnc(OCC(F)(F)F)c1 (centres unmarked) [Example 150, 1-(3-chloro-2-fluorophenyl)-3-[2-hydroxy-1-[2-(2,2,2-trifluoroethoxy)pyridin-4-yl]ethyl]urea]	73	80
C[C@@H](F)COc1cc(CNC(=O)NC23CCC(F)(CC2)CC3)ccn1 [Example 151, 1-(4-fluoro-1-bicyclo[2.2.2]octanyl)-3-[[2-[(2R)-2-fluoropropoxy]pyridin-4-yl]methyl]urea]	42	650
C[C@H](F)COc1cc(CNC(=O)NC23CCC(F)(CC2)CC3)ccn1 [Example 156, 1-(4-fluoro-1-bicyclo[2.2.2]octanyl)-3-[[2-[(2S)-2-fluoropropoxy]pyridin-4-yl]methyl]urea]	50	560
O=C(NCc1ccnc(OCC(F)(F)F)c1)NC1CC(F)(F)C1 [Example 157, 1-(3,3-difluorocyclobutyl)-3-[[2-(2,2,2-trifluoroethoxy)pyridin-4-yl]methyl]urea]	50	380
O=C(NCc1ccnc(CC(F)(F)F)c1)NC12CC(F)(C1)C2 [Example 159, 1-(3-fluoro-1-bicyclo[1.1.1]pentanyl)-3-[[2-(2,2,2-trifluoroethyl)pyridin-4-yl]methyl]urea]	67	5180
O=C(NCc1ccnc(OC(F)F)c1)Nc1cncc(Cl)c1 [Example 161, 1-(5-chloropyridin-3-yl)-3-[[2-(difluoromethoxy)pyridin-4-yl]methyl]urea]	43	1050
O=C(NCc1ccnc(OCC(F)(F)F)c1)N[C@H]1C[C@H](F)C1 [Example 162, 1-((1r,3r)-3-fluorocyclobutyl)-3-[[2-(2,2,2-trifluoroethoxy)pyridin-4-yl]methyl]urea]	50	190
O=C(NCc1ccnc(OCF)c1)Nc1cccc(Cl)c1 [Example 164, 1-(3-chlorophenyl)-3-[[2-(fluoromethoxy)pyridin-4-yl]methyl]urea]	78	1720
O=C(NCc1ccnc(OC(F)F)c1)NC1COC(C2CC2)C1 (centres unmarked) [Example 166, 1-(5-cyclopropyloxolan-3-yl)-3-[[2-(difluoromethoxy)pyridin-4-yl]methyl]urea]	66	3330
O=C(NCc1ccnc(OC(F)F)c1)N[C@@H]1C[C@@H]2[C@H](C1)C2(F)F [Example 169, 1-[[2-(difluoromethoxy)pyridin-4-yl]methyl]-3-[(1R,3s,5S)-6,6-difluoro-3-bicyclo[3.1.0]hexanyl]urea]	69	340
O=C(NCc1ccnc(OC(F)F)c1)N[C@@H]1[C@H]2CCC(F)(F)[C@H]21 [Example 170, 1-[(1R,5S,6R)-2,2-difluoro-6-bicyclo[3.1.0]hexanyl]-3-[[2-(difluoromethoxy)pyridin-4-yl]methyl]urea]	59	80
O=C(NCc1ccnc(OCC(F)(F)F)c1)N[C@H]1C[C@H](C(F)(F)F)C1 [Example 179, 1-[[2-(2,2,2-trifluoroethoxy)pyridin-4-yl]methyl]-3-[(1r,3r)-3-(trifluoromethyl)cyclobutyl]urea]	48	20
O=C(NCc1ccnc(OCC(F)(F)F)c1)NC12CCC(F)(CC1)CC2 [Example 180, 1-(4-fluoro-1-bicyclo[2.2.2]octanyl)-3-[[2-(2,2,2-trifluoroethoxy)pyridin-4-yl]methyl]urea]	72	310
CC(F)COc1cc(CNC(=O)N[C@H]2C[C@H](C(F)(F)F)C2)ccn1 (some centres unmarked) [Example 183, 1-[[2-(2-fluoropropoxy)pyridin-4-yl]methyl]-3-[(1r,3r)-3-(trifluoromethyl)cyclobutyl]urea]	58	260
